The source of these data is PubChem BioAssay (NCI).

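Tested at 5 concentrations; 48 h exposure; 96-well plates; endpoints linearly interpolated, else capped at highest concentration. At the GI50, growth is halved. TGI: concentration producing complete growth inhibition.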

Common to all, as to test: NCI-60 cell line screen, 48 h
The test system of test [1] is M19-MEL melanoma.
For test [2], the system named is XF 498 CNS.
Test [3] concerns DLD-1 colon.
In test [4] the test system is SNB-78 CNS.

With `CCC[CH2][Ge]([CH2]CCC)([CH2]CCC)[O]C(=O)CC(=O)c1ccccc1`, the GI50 in test [1] is 3.83 µM; in test [2] it was 11.6 µM; in test [3], 770 nM. In addition, the TGI in test [1] is 19.3 µM; in test [2], 23.8 µM; in test [3] it was 16 µM.
As to `Cc1cc(=O)[nH]c(NN2C(Cl)C(=O)C2c2cccc(O)c2)n1` (stereo not drawn), the TGI in test [1] and in test [4] was > 100 µM throughout.
